Reference: patent US10494338B2, “Prostaglandin derivative” (AGC INC., priority 2016, dated 2019)

Legend:
[1] = test system: rat platelet aggregation; test: Inhibitory action on rat platelet aggregation in vitro (ADP-induced, platelet-rich plasma); type: cell-based; conditions: SD rat PRP, ADP 2 μmol/L; relative activity from IC50, activity of IC50 value of PGE1 = 100
Experimental: Experimental Example 2: Evaluation of Inhibitory Action on Rat Platelet Aggregation In Vitro (1) Preparation of Rat Platelet-Rich Plasma In the same manner as in the above-mentioned Experimental Example 1(1), blood samples were collected from the abdominal artery of 8- to 9-week-old male SD rats. PRP was diluted with PPP and the number of platelet was adjusted to 63.2×10^4/μL. (2) Measurement of Platelet Aggregation Ability In the same manner as in the above-mentioned Experimental Example 1(2) except that the final concentration of ADP was 2 μmol/L, the compound of the present invention, prostaglandin E1 (PGE1:positive control substance) or vehicle control was added as a test substance, and the maximum response of aggregation was measured. (3) Evaluation of Platelet Aggregation Inhibitory Action In the same manner as in the above-mentioned Experimental Example 1(3), IC50 values were determined from the aggregation inhibition ratio of the test substance, and the relative activity (%) of each test substance was calculated by defining the activity of IC50 value of PGE1 as 100.

[2] = test system: rat cauda equine blood flow; test: Increasing effect on rat cauda equine blood flow (intravenous infusion, laser Doppler); type: in vivo; conditions: Wistar rat, tail vein infusion 10 min; relative activity from ED20 (dose increasing cauda equine blood flow by 20%), limaprost = 100
Experimental: Experimental Example 4: Evaluation of Increasing Effect on rat Cauda Equine Blood Flow
(1) Administration of Test Substance
The compound of the present invention or limaprost (positive control substance) as a test substance was injected at 0.263, 0.789 and 2.63 nmol/kg in principle to Slc:Wistar male rats (body weight: about 200-250 g) from the tail vein at a flow rate of 0.2 mL/min for 10 min with an infusion pump (model 11, Harvard Apparatus). A vehicle (1 vol % DMSO-physiological saline) was similarly injected to the control group (5-6 […] in each group).
(2) Measurement of Cauda Equine Blood Flow
The rats were fixed in a prone position under halothane anesthesia and kept warm by a heater (Nippon Medical & Chemical Instruments Co., Ltd.). The lower back of the rats was shaved, dissected to expose the spine, the vertebral arch of the fifth lumbar vertebra was excised and cauda equina was exposed. The cauda equine blood flow was measured by a laser Doppler blood flow meter (TBF-LN1, Unique Medical Co., Ltd.) via a non-contact type probe (LP-NC special type, Unique Medical Co., Ltd.) fixed perpendicularly to a position of the exposed cauda equina upper by about 1 mm from before administration of each test substance until 60 min after the administration. The open wound was filled with liquid paraffin to prevent drying of the exposed cauda equina.
The obtained data was taken into a personal computer via PowerLab8/30 (registered trade mark, ML870, ADInstruments) every 1/400 second, and analyzed using LabChart (registered trade mark, ADInstruments). The analysis time points were before administration (administration 0 min), and 3, 5, 8, 10, 13, 15, 18, 20, 30, 40, 50 and 60 min after administration, or before administration (administration 0 min), and 3, 5, 10, 15, 20, 30, 40, 50 and 60 min after administration. The mean value for 10 seconds at each time point was taken as the measurement value, and the change rate (%) relative to the value before administration was obtained by the following equation. The rate of change (%)=(measurement value at each time point after administration−measurement value before administration)/measurement value before administration×100
Furthermore, difference in the rate of change (%) relative to the control group at each time point [Δ change rate (%)] was calculated by the following equation, and the maximum value of the Δ change rate was taken as the maximum change rate. Δchange rate (%)=change rate of each individual at each time point−mean of change rate of control group
From the maximum change rate at each dose of the test substance, the dose at which the cauda equine blood flow increases by 20% (ED20 value) was determined by linear regression equation, and the relative activity (%) of each test substance was calculated based on the activity of ED20 value of limaprost as 100.

[3] = test system: human platelet aggregation; test: Human platelet aggregation inhibitory action in vitro (ADP-induced, platelet-rich plasma); type: cell-based; conditions: human PRP, ADP 3 μmol/L; relative activity from IC50, activity of IC50 value of limaprost = 100
Experimental: Experimental Example 1: Evaluation of Human Platelet Aggregation Inhibitory Action In Vitro
(1) Preparation of Human Platelet-Rich Plasma
Using 3.8 w/v % sodium citrate as an anticoagulant, blood samples were collected from human brachial vein at a ratio of sodium citrate solution:blood (volume ratio)=1:9, and an upper layer of platelet-rich plasma (PRP) was collected by centrifugation (120×g, 10 min). Platelet poor plasma (PPP) was prepared from PRP-free blood by centrifugation (1700×g, 10 min). The number of platelets in PRP was measured and adjusted to 25×10^4/μL by diluting with PPP.
(2) Measurement of Platelet Aggregation Ability
The platelet aggregation ability was measured by a platelet aggregometer (PRP313 M, IMI Co., Ltd.) according to the method of Born (Nature, 1962, vol. 194, pp. 927-929). PRP (190 μL) was placed in a glass cuvette and mounted on the platelet aggregometer. Then, 5 μL of the compound of the present invention, limaprost (positive control substance) or vehicle control (0.25 vol % dimethyl sulfoxide [DMSO]) was added as a test substance, and the mixture was incubated at 37° C. for 10 min. ADP (LMS Co., Ltd.) (5 μL) as a platelet aggregation agent was added at 3 μmol/L in a final concentration to cause aggregation, and the maximum response of the aggregation was measured.
(3) Evaluation of Inhibitory Action on Platelet Aggregation
The aggregation inhibition ratio of a test substance was determined by defining the maximum aggregation ratio of control as 100%, and IC50 value was determined by using “Dx calculation (linear fitting): non-logit transformation” of SAS System Version 9.1.3 (Stat Preclinica Client Ver. 1.1 SAS Institute Japan, Ltd.). Furthermore, the relative activity (%) of each test substance was calculated by defining the activity of IC50 value of limaprost as 100.

[4] = test system: guinea pig platelet aggregation; test: Persistent inhibitory action on guinea pig platelet aggregation ex vivo after single oral dose; type: in vivo; conditions: for AUC: 1-inhibition 0 hr / AUC: 6-inhibition 0 hr: AUC of maximum aggregation inhibition ratio (%) vs time (hr), oral IC50 dose; for AUC: 1-inhibition 0 hr: from 1 hr after administration to inhibition 0 hr; for AUC: 6-inhibition 0 hr: from 6 hr after administration to inhibition 0 hr; for Inhibition 0 hr: assumed time at which maximum aggregation inhibition ratio became 0%, single oral dose at IC50 dose; for Inhibition 0 hr / single oral dose showing the IC50 value: guinea pig; for single oral dose showing the IC50 value: blood collected 4 hr later, ADP 0.5 μmol/L; for AUC: 1-inhibition 0 hr (% relative to limaprost) / AUC: 6-inhibition 0 hr (% relative to limaprost): value in brackets, limaprost = 100
Experimental: Experimental Example 3: Evaluation of Persistent Inhibitory Action on Guinea Pig Platelet Aggregation Ex Vivo
(1) Measurement of IC50 Value
As a test substance, a single oral dose of the compound of the present invention (3 doses of 79, 132 and 263 nmol/kg), limaprost (positive control substance: 3 doses of 79, 263 and 789 nmol/kg) or vehicle control (water for injection containing 0.26 vol % DMSO) was administered at 10 mL/kg to 4- to 10-week-old male Hartley guinea pigs. Blood samples were collected from the abdominal artery 4 hr later, platelet aggregation ability was measured, and the IC50 value was calculated from the aggregation inhibitory activity (aggregation was induced by 0.5 μmol/L ADP) in the same manner as in the above-mentioned Experimental Example 1(3).
(2) Administration of Test Substance and Preparation of Platelet-Rich Plasma
Blood samples were collected from the abdominal artery of the guinea pig at 1, 2, 4, 6, 10, 16 and 24 hr later. PRP was diluted with PPP and the number of platelet was adjusted to about 60×10^4/μL in the same manner as in the above-mentioned Experimental Example 1(1) (n=3−4).
(3) Measurement of Platelet Aggregation
In the same manner as in the above-mentioned Experimental Example 1(2), the platelet aggregation ability was measured according to the method of Born. PRP (190 μL) was placed in a glass cuvette, mounted on the platelet aggregometer and incubated at 37° C. for 10 min. ADP (10 μL) as platelet aggregation agent was added at 0.5 μmol/L in a final concentration to cause aggregation, and the maximum reaction of the aggregation was measured.
(4) Evaluation of Persistent Inhibitory Action on Platelet Aggregation
The maximum aggregation inhibition ratio of the test substance based on the maximum aggregation inhibition ratio of the control group as 0% was determined from the maximum coagulation ratio of the control group and the maximum coagulation ratio of the test substance when IC50 values were calculated. […] In addition, the assumed time at which the maximum aggregation inhibition ratio became 0% on the graph was determined as the time at which inhibition of aggregation disappeared (inhibition 0 hr).

| single oral dose showing the IC50 value [4] [nmol/kg] | SMILES | Relative activity (%) [1] [%] | Relative activity (%) [2] [%] | Relative activity (%) [3] [%] | AUC: 1-inhibition 0 hr [4] [%·h] | AUC: 6-inhibition 0 hr [4] [%·h] | Inhibition 0 hr [4] [h] | AUC: 1-inhibition 0 hr (% relative to limaprost) [4] [%] | AUC: 6-inhibition 0 hr (% relative to limaprost) [4] [%] |
| --- | --- | --- | --- | --- | --- | --- | --- | --- | --- |
|  | CCC#CC[C@H](C)C(O)/C=C/[C@H]1[C@H](O)CC(=O)[C@@H]1CCSCCCC(=O)OC (mixture of isomers) [compound (1)-1, methyl 4-((2-((1R,2R,3R)-3-hydroxy-2-((1E,3RS,4S)-3-hydroxy-4-methylnon-1-en-6-yn-1-yl)-5-oxocyclopentyl)ethyl)thio)butanoate] | 169 |  |  |  |  |  |  |  |
|  | CCC#CC[C@H](C)C(O)/C=C/[C@H]1[C@H](O)CC(=O)[C@@H]1CCSC/C=C/C(=O)OC (mixture of isomers) [compound (1)-2, methyl (2E)-4-((2-((1R,2R,3R)-3-hydroxy-2-((1E,3RS,4S)-3-hydroxy-4-methylnon-1-en-6-yn-1-yl)-5-oxocyclopentyl)ethyl)thio)but-2-enoate] | 62 |  |  |  |  |  |  |  |
|  | CCC#CC[C@H](C)[C@H](O)/C=C/[C@H]1[C@H](O)CC(=O)[C@@H]1CCCCCCC(=O)OCc1oc(=O)oc1C [compound (1)-4, (5-methyl-2-oxo-1,3-dioxol-4-yl)methyl 7-((1R,2R,3R)-3-hydroxy-2-((1E,3S,4S)-3-hydroxy-4-methylnon-1-en-6-yn-1-yl)-5-oxocyclopentyl)heptanoate] |  | 147 | 643 |  |  |  |  |  |
|  | CCC#CC[C@H](C)[C@H](O)/C=C/[C@H]1[C@H](O)CC(=O)[C@@H]1CCCCCCC(=O)OCC(=O)C(C)(C)C [compound (1)-5, 3,3-dimethyl-2-oxobutyl 7-((1R,2R,3R)-3-hydroxy-2-((1E,3S,4S)-3-hydroxy-4-methylnon-1-en-6-yn-1-yl)-5-oxocyclopentyl) heptanoate] |  |  | 161 |  |  |  |  |  |
|  | CCC#CC[C@H](C)[C@H](O)/C=C/[C@H]1[C@H](O)CC(=O)[C@@H]1CCCCCCC(=O)O [compound (1)-6, 7-((1R,2R,3R)-3-hydroxy-2-((1E,3S,4S)-3-hydroxy-4-methylnon-1-en-6-yn-1-yl)-5-oxocyclopentyl)heptanoic acid] |  | 383 | 923 |  |  |  |  |  |
| 168 | CCC#CC[C@H](C)[C@H](O)/C=C/[C@H]1[C@H](O)CC(=O)[C@@H]1CCCC/C=C/C(=O)O [compound (1)-7, (2E)-7-((1R,2R,3R)-3-hydroxy-2-((1E,3S,4S)-3-hydroxy-4-methylnon-1-en-6-yn-1-yl)-5-oxocyclopentyl)hept-2-enoic acid] |  | 375 | 1319 | 713 | 526 | >24 | 202 | 359 |
| 178 | C[C@@H](CC#CC1CC1)[C@H](O)/C=C/[C@H]1[C@H](O)CC(=O)[C@@H]1CCCCCCC(=O)O [compound (1)-9, 7-((1R,2R,3R)-2-((1E,3S,4S)-7-cyclopropyl-3-hydroxy-4-methylhept-1-en-6-yn-1-yl)-3-hydroxy-5-oxocyclopentyl)heptanoic acid] |  | 311 | 1200 | 627 | 401 | 19.7 | 178 | 273 |
| 187 | C[C@@H](CC#CC1CC1)[C@H](O)/C=C/[C@H]1[C@H](O)CC(=O)[C@@H]1CCCC/C=C/C(=O)O [compound (1)-10, (2E)-7-((1R,2R,3R)-2-((1E,3S,4S)-7-cyclopropyl-3-hydroxy-4-methylhept-1-en-6-yn-1-yl)-3-hydroxy-5-oxocyclopentyl)hept-2-enoic acid] |  | 550 | 1481 | 719 | 508 | >24 | 204 | 346 |
| 266 | CCCC[C@H](C)C[C@H](O)/C=C/[C@H]1[C@H](O)CC(=O)[C@@H]1CCCC/C=C/C(=O)O [limaprost, (2E)-7-((1R,2R,3R)-3-hydroxy-2-((1E,3S,5S)-3-hydroxy-5-methylnon-1-en-1-yl)-5-oxocyclopentyl)hept-2-enoic acid, reference compound] |  | 100 | 100 | 353 | 147 | 12.1 | 100 | 100 |
